Experimental data from US20250332112A1, “IONIZABLE CATIONIC LIPIDS FOR LIPID NANOPARTICLES” (GENEVANT SCIENCES GMBH, priority 2022, published 2025).

Key:
[1] = test system: luciferase activity in the liver; test: Luciferase activity in liver after intravenous luciferase mRNA LNP; assay type: in vivo; details: 0.5 mg/kg IV, 6 h post-IV administration, BALB/c mice (n = 4)
[2] = Parent ionizable lipid remaining in liver at 6 h after luciferase mRNA LNP (LC-MS); assay type: in vivo; details: 6 h after IV 0.5 mg/kg Luciferase mRNA LNP, female BALB/c mice (n = 4)
Description: Liver tissues were treated with PBS and homogenized with a FastPrep machine, 3 cycles of 5 m/s×15 s. Homogenates from the PBS-treated control animals was pooled and used for standard curve preparation. Samples were extracted into a deep well plate with 250 μL of an internal suitability standard. Plates were centrifuged for 15 min at 4° C. and 2000 rpm. Analysis was performed using an Agilent 6520 QTOF coupled to an Agilent 1290 UHPLC, using reverse-phase LC separation. Quantitation of the ionizable lipid was by MS/MS against a calibration curve spiked into appropriately matched blank matrix. Calibration used a similar class of synthetic lipid as internal standard.
At 6 h post-dose, some treatment groups reported lower levels of novel ionizable lipid in mouse liver compared to the benchmark (Tables 16-18).

[3] = Particle characteristics of LNPs containing luciferase mRNA and novel ionizable lipids; assay type: physicochemical; details: luciferase mRNA LNP 1.6:54.6:32.8:10.9
Outline: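 LNPs made from PEG-lipid, ionizable lipid, cholesterol and phospholipid in ethanol, T-mixed with luciferase mRNA in 100 mM acetate pH 5. Products were dialysed, concentrated, and dialysed into 5 mM Tris, 10% sucrose, pH 8, then 0.2 μm filtered. mRNA was measured by RiboGreen, and size and polydispersity by dynamic light scattering on a Zetasizer.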

Row | Compound | Luc Activity ([1]; Table 14) [pg/g liver] | Parent ionizable lipid remaining in liver, Average ([2]; Table 18) [nmol/g liver] | Final Product % EE ([3]; Table 7) [%] | Final Product PDI ([3]; Table 7) | Final Product Z-avg ([3]; Table 7) [nm] | Luc Activity ([1]; Table 10) [pg/g liver] | Parent ionizable lipid remaining in liver, Average ([2]; Table 16) [nmol/g liver] | Final Product % EE ([3]; Table 3) [%] | Final Product PDI ([3]; Table 3) | Final Product Z-avg ([3]; Table 3) [nm]
1 | CCCCCCCCCCON(C(=O)CCCN(C)C)C(CCCCCCCCCC)CCCCCCC(F)(F)C(=O)OCCC(CCCCC)CCCCC (stereo not shown) [Compound 39, 3-pentyloctyl 9-[N-(decyloxy)-4-(dimethylamino)butanamido]-2,2-difluorononadecanoate] | 4.30E+06 | 2.91 | 98 | 0.19 | 59 | – | – | – | – | –
2 | CCCCCCCCCCON(C(=O)CCCCN(C)C)C(CCCCCCCCCC)CCCCCC(=O)OCC(CCCCCC)CCCCCCCC (stereo not shown) [Compound 47, 2-Hexyldecyl 7-(N-(decyloxy)-5-(dimethylamino)pentanamido)heptadecanoate] | 8.09E+07 | 54.78 | 98 | 0.07 | 77 | – | – | – | – | –
3 | CCCCC/C=C\CCCN(CCC/C=C\CCCCC)NC(=O)CC(CCCCCCCCC)N(CCCN(C)C)C(=O)CCCCCCCCC (stereo not shown) [Compound 54, N-(1-(2,2-di((Z)-Dec-4-en-1-yl)hydrazineyl)-1-oxododecan-3-yl)-N-(3-(dimethylamino)-propyl)decanamide] | – | – | – | – | – | 3.28E+06 | 17.78 | 97 | 0.05 | 82
4 | CCCCC/C=C\CCCC(CCC/C=C\CCCCC)=NNC(=O)CC(CCCCCCCCC)N(CCCN(C)C)C(=O)C(CCCCCC)CCCCCCCC (stereo not shown) [Compound 57, N-(3-(dimethylamino)propyl)-N-(1-(2-((6Z,15Z)-henicosa-6,15-dien-11-ylidene)hydrazineyl)-1-oxododecan-3-yl)-2-hexyldecanamide] | – | – | – | – | – | 2.43E+06 | 15.88 | 80 | 0.03 | 84
5 | CCCCC/C=C\CCCC(CCC/C=C\CCCCC)NNC(=O)CC(CCCCCCCCC)N(CCCN(C)C)C(=O)CCCCCCCCC (stereo not shown) [Compound 59, N-(3-(Dimethylamino)propyl)-N-(1-(2-((6Z,15Z)-henicosa-6,15-dien-11-yl)hydrazineyl)-1-oxododecan-3-yl)decanamide] | – | – | – | – | – | 1.12E+06 | 22.67 | 99 | 0.07 | 82
6 | CCCCCCCCCCC(CCCCC(=O)OCc1cc(CCCCCC)cc(CCCCCC)c1)N(CCCN(C)C)C(=O)CCCCCCCCC (stereo not shown) [Compound 60, (3,5-dihexylphenyl)methyl 6-{N-[3-(dimethylamino)propyl]decanamido}hexadecanoate] | – | – | – | – | – | 8.23E+06 | 35.39 | 99 | 0.05 | 73
7 | CCCCCCCCCCCCC(=O)N(CCCN(C)C)C(CCCCCCCCCC)CCCCC(=O)OCc1cc(CCCCCC)cc(CCCCCC)c1 (stereo not shown) [Compound 61, 3,5-Dihexylbenzyl 6-(N-(3-(dimethylamino)propyl)tridecanamido)hexadecanoate] | – | – | – | – | – | 2.45E+07 | 27.21 | 99 | 0.05 | 76
8 | CCCCCCCCCCC(CCCCC(=O)OCc1cc(CCCCCC)cc(CCCCCC)c1)N(CCCN(C)C)C(=O)C(CCCCCC)CCCCCCCC (stereo not shown) [Compound 62, 3,5-Dihexylbenzyl 6-(N-(3-(dimethylamino)propyl)-2-hexyldecanamido)hexadecanoate] | – | – | – | – | – | 7.84E+06 | 20.17 | 98 | 0.08 | 67
